Measured values as given in PubChem BioAssay AID1918996 (Molecular Pharmacology Branch, DTP, NCI, 2023).

Test system: 349418-098-R-PDC complex spheroid growth
Experiment: Anticancer human tumor 349418-098-R-PDC patient-derived lung adenocarcinoma cell line growth inhibition [AhR]
Details: for IC50: curve of first compound; for viability, T/C: stronger effect = lower value
Method in brief: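 Complex tumor spheroids co-cultured with HUVEC and human MSC stroma; AhR antagonists tested in combination with standard-of-care and investigational agents. Top concentration at or near clinical Cmax (else 10 microM), half-log dilutions; growth expressed as percent test/control.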

[1] = second compound 0.1 µM, first compound 0.0316 µM
[2] = second compound 0.1 µM, first compound 0.1 µM
[3] = second compound 0.1 µM, first compound 0.316 µM
[4] = second compound 0.1 µM, first compound 1 µM
[5] = second compound 0.1 µM, first compound 3.16 µM
[6] = second compound 0.1 µM, first compound 10 µM
[7] = second compound 0.316 µM, first compound 0.0316 µM
[8] = second compound 0.316 µM, first compound 0.1 µM
[9] = second compound 0.316 µM, first compound 0.316 µM
[10] = second compound 0.316 µM, first compound 1 µM
[11] = second compound 0.316 µM, first compound 3.16 µM
[12] = second compound 0.316 µM, first compound 10 µM
[13] = second compound 1 µM, first compound 0.0316 µM
[14] = second compound 1 µM, first compound 0.1 µM
[15] = second compound 1 µM, first compound 0.316 µM
[16] = second compound 1 µM, first compound 1 µM
[17] = second compound 1 µM, first compound 3.16 µM
[18] = second compound 1 µM, first compound 10 µM
[19] = second compound 3.16 µM, first compound 0.0316 µM
[20] = second compound 3.16 µM, first compound 0.1 µM
[21] = second compound 3.16 µM, first compound 0.316 µM
[22] = second compound 3.16 µM, first compound 1 µM
[23] = second compound 3.16 µM, first compound 3.16 µM
[24] = second compound 3.16 µM, first compound 10 µM
[25] = second compound 10 µM, first compound 0.0316 µM
[26] = second compound 10 µM, first compound 0.1 µM
[27] = second compound 10 µM, first compound 0.316 µM
[28] = second compound 10 µM, first compound 1 µM
[29] = second compound 10 µM, first compound 3.16 µM
[30] = second compound 10 µM, first compound 10 µM
[31] = second compound 0.1 µM, first compound 0.00316 µM
[32] = second compound 0.1 µM, first compound 0.01 µM
[33] = second compound 0.316 µM, first compound 0.00316 µM
[34] = second compound 0.316 µM, first compound 0.01 µM
[35] = second compound 1 µM, first compound 0.00316 µM
[36] = second compound 1 µM, first compound 0.01 µM
[37] = second compound 3.16 µM, first compound 0.00316 µM
[38] = second compound 3.16 µM, first compound 0.01 µM
[39] = second compound 10 µM, first compound 0.00316 µM
[40] = second compound 10 µM, first compound 0.01 µM
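Further: spheroids exposed to agents for seven days before luminescence viability read.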
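Wherever viability, T/C is given: spheroids also contain HUVEC endothelial cells and human MSC stroma.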

Row | SMILES | IC50 (second compound 0.1 µM) [nM] | IC50 (second compound 0.316 µM) [nM] | IC50 (second compound 1 µM) [nM] | IC50 (second compound 3.16 µM) [nM] | IC50 (second compound 10 µM) [nM] | viability, T/C [1] [%] | viability, T/C [2] [%] | viability, T/C [3] [%] | viability, T/C [4] [%] | viability, T/C [7] [%] | viability, T/C [8] [%] | viability, T/C [9] [%] | viability, T/C [10] [%] | viability, T/C [13] [%] | viability, T/C [14] [%] | viability, T/C [15] [%] | viability, T/C [19] [%] | viability, T/C [20] [%] | viability, T/C [25] [%] | viability, T/C [26] [%] | other results
1 | CC(C)c1c(-c2ccccc2)nc2c(C#N)c[nH]n2c1=O + CC(CO)NC(=O)c1cc(-c2ccc(Cl)cc2)nn(-c2cnn(C)c2)c1=O | > 10000 | > 10000 | > 10000 | > 10000 | 170 | 91.8 | 66.8 | 98.2 | 68.5 | 66.9 | 93.3 | 67.7 | 78.7 | 91.3 | 70.7 | 88.3 | 70.3 | 86.2 | 54.3 | 55.3 | viability, T/C [5]: 77%; viability, T/C [6]: 78%; viability, T/C [11]: 85.7%; viability, T/C [12]: 60.8%; viability, T/C [16]: 67.1%; viability, T/C [17]: 58.2%; viability, T/C [18]: 70.3%; viability, T/C [21]: 71.8%; viability, T/C [22]: 77.2%; viability, T/C [23]: 56.4%; viability, T/C [24]: 60.4%; viability, T/C [27]: 46.5%; viability, T/C [28]: 45%; viability, T/C [29]: 43.6%; viability, T/C [30]: 45.5%
2 | COc1ccc([C@@H](O)c2cc(-c3ncnc4cc(N5CCOCC5)ccc34)c(F)cc2Cl)nn1 + CC(CO)NC(=O)c1cc(-c2ccc(Cl)cc2)nn(-c2cnn(C)c2)c1=O | 2060 | 1260 | 848 | 1070 | 375 | 81.3 | 89.9 | 62.5 | 75.7 | 89.3 | 89.7 | 87 | 55.5 | 96.9 | 119 | 97.1 | 66.2 | 85.8 | 53.6 | 52.6 | viability, T/C [5]: 35.3%; viability, T/C [6]: 13.8%; viability, T/C [11]: 25.4%; viability, T/C [12]: 15.4%; viability, T/C [16]: 41%; viability, T/C [17]: 41.2%; viability, T/C [18]: 13.2%; viability, T/C [21]: 64.8%; viability, T/C [22]: 50.1%; viability, T/C [23]: 30%; viability, T/C [24]: 13.5%; viability, T/C [27]: 53.3%; viability, T/C [28]: 36.9%; viability, T/C [29]: 17%; viability, T/C [30]: 13.5%
3 | COc1cc(C2c3cc4c(cc3C(OC3OC5COC(C)OC5C(O)C3O)C3COC(=O)C23)OCO4)cc(OC)c1O (stereo not given) + Cc1ccccc1N=Nc1ccc(NC(=O)c2ccnn2C)c(C)c1 | 298 | 243 | 219 | 149 | < 31.6 | 89.6 | 98.8 | 47.5 | 20.2 | 103 | 71.3 | 47.2 | 19.9 | 90.4 | 76.6 | 36.5 | 70.1 | 56.9 | 46.4 | 44.6 | viability, T/C [5]: 15.3%; viability, T/C [6]: 13.3%; viability, T/C [11]: 14.6%; viability, T/C [12]: 13.7%; viability, T/C [16]: 23.9%; viability, T/C [17]: 16.6%; viability, T/C [18]: 14.6%; viability, T/C [21]: 36.6%; viability, T/C [22]: 19.1%; viability, T/C [23]: 16.3%; viability, T/C [24]: 16%; viability, T/C [27]: 30.5%; viability, T/C [28]: 22.4%; viability, T/C [29]: 17.5%; viability, T/C [30]: 15.9%
4 | COc1cccc2c1C(=O)c1c(O)c3c(c(O)c1C2=O)CC(O)(C(=O)CO)CC3OC1CC(N)C(O)C(C)O1 (stereo not given) + Cc1ccccc1N=Nc1ccc(NC(=O)c2ccnn2C)c(C)c1 | < 31.6 | < 31.6 | < 31.6 | < 31.6 | < 31.6 | 25.2 | 19 | 5.76 | 0.44 | 21.5 | 17.8 | 5.6 | 1.97 | 24.3 | 19.2 | 6.34 | 23.6 | 18 | 20.4 | 15.6 | viability, T/C [5]: 4.06%; viability, T/C [6]: 7.47%; viability, T/C [11]: 4.18%; viability, T/C [12]: 7.15%; viability, T/C [16]: 0.81%; viability, T/C [17]: 4.84%; viability, T/C [18]: 6.54%; viability, T/C [21]: 6.45%; viability, T/C [22]: 0.66%; viability, T/C [23]: 4.34%; viability, T/C [24]: 6.09%; viability, T/C [27]: 4.32%; viability, T/C [28]: 1.12%; viability, T/C [29]: 3.09%; viability, T/C [30]: 7.07%

The next lines start with results.

Row | IC50 (second compound 0.1 µM) [nM] | IC50 (second compound 0.316 µM) [nM] | IC50 (second compound 1 µM) [nM] | IC50 (second compound 3.16 µM) [nM] | IC50 (second compound 10 µM) [nM] | SMILES | viability, T/C [1] [%] | viability, T/C [2] [%] | viability, T/C [3] [%] | viability, T/C [4] [%] | viability, T/C [7] [%] | viability, T/C [8] [%] | viability, T/C [9] [%] | viability, T/C [10] [%] | viability, T/C [13] [%] | viability, T/C [14] [%] | viability, T/C [15] [%] | viability, T/C [19] [%] | viability, T/C [20] [%] | viability, T/C [25] [%] | viability, T/C [26] [%] | other results
5 | 16.5 | 11.3 | 13.4 | 8.38 | 6.22 | CC[C@@]1(O)C(=O)OCc2c1cc1n(c2=O)Cc2cc3c(CN(C)C)c(O)ccc3nc2-1 + Cc1ccccc1N=Nc1ccc(NC(=O)c2ccnn2C)c(C)c1 | 29.3 | 13 | – | – | 25.5 | 17 | – | – | 22.5 | 17.2 | – | 19.1 | 15.4 | 22.2 | 17.5 | viability, T/C (second compound 0.1 µM, first compound 0.000316 µM): 116%; viability, T/C (second compound 0.1 µM, first compound 0.001 µM): 101%; viability, T/C [31]: 112%; viability, T/C [32]: 65.9%; viability, T/C (second compound 0.316 µM, first compound 0.000316 µM): 95%; viability, T/C (second compound 0.316 µM, first compound 0.001 µM): 104%; viability, T/C [33]: 98.5%; viability, T/C [34]: 52.8%; viability, T/C (second compound 1 µM, first compound 0.000316 µM): 130%; viability, T/C (second compound 1 µM, first compound 0.001 µM): 76.9%; viability, T/C [35]: 98%; viability, T/C [36]: 57.3%; viability, T/C (second compound 3.16 µM, first compound 0.000316 µM): 64.5%; viability, T/C (second compound 3.16 µM, first compound 0.001 µM): 63.3%; viability, T/C [37]: 79.1%; viability, T/C [38]: 46.5%; viability, T/C (second compound 10 µM, first compound 0.000316 µM): 66.8%; viability, T/C (second compound 10 µM, first compound 0.001 µM): 65.1%; viability, T/C [39]: 68.7%; viability, T/C [40]: 38.2%
6 | 59 | 66.1 | 107 | 68 | 50.5 | Nc1ncn(C2CC(O)C(CO)O2)c(=O)n1 (stereo not given) + Cc1ccccc1N=Nc1ccc(NC(=O)c2ccnn2C)c(C)c1 | 66.1 | 39.9 | 39.1 | 30 | 73.1 | 38.8 | 37.7 | 34.5 | 69.9 | 51.8 | 44 | 61 | 42.2 | 53.9 | 42.8 | viability, T/C [31]: 97.8%; viability, T/C [32]: 103%; viability, T/C [33]: 77.8%; viability, T/C [34]: 111%; viability, T/C [35]: 79.6%; viability, T/C [36]: 99.2%; viability, T/C [16]: 34%; viability, T/C [37]: 91.1%; viability, T/C [38]: 74.4%; viability, T/C [21]: 41.3%; viability, T/C [22]: 34%; viability, T/C [39]: 54.7%; viability, T/C [40]: 61.4%; viability, T/C [27]: 37.2%; viability, T/C [28]: 29.5%
